Laboratory results as given in PMC3265476, “Functional Characterization of MODY2 Mutations Highlights the Importance of the Fine-Tuning of Glucokinase and Its Role in Glucose Sensing” (PLoS ONE, 2012).
Where a chain is given by its changes, count along the chain named.

B1: GKRP: purified human glucokinase regulatory protein, competitive inhibitor with respect to glucose (protein, UniProt Q14397 1-625, looked up)
Glucokinase regulatory protein: MPGTKRFQHVIETPEPGKWELSGYEAAVPITEKSNPLTQDLDKADAENIVRLLGQCDAEIFQEEGQALSTYQRLYSESILTTMVQVAGKVQEVLKEPDGGLVVLSGGGTSGRMAFLMSVSFNQLMKGLGQKPLYTYLIAGGDRSVVASREGTEDSALHGIEELKKVAAGKKRVIVIGISVGLSAPFVAGQMDCCMNNTAVFLPVLVGFNPVSMARNDPIEDWSSTFRQVAERMQKMQEKQKAFVLNPAIGPEGLSGSSRMKGGSATKILLETLLLAAHKTVDQGIAASQRCLLEILRTFERAHQVTYSQSPKIATLMKSVSTSLEKKGHVYLVGWQTLGIIAIMDGVECIHTFGADFRDVRGFLIGDHSDMFNQKAELTNQGPQFTFSQEDFLTSILPSLTEIDTVVFIFTLDDNLTEVQTIVEQVKEKTNHIQALAHSTVGQTLPIPLKKLFPSIISITWPLLFFEYEGNFIQKFQRELSTKWVLNTVSTGAHVLLGKILQNHMLDLRISNSKLFWRALAMLQRFSGQSKARCIESLLRAIHFPQPLSDDIRAAPISCHVQVAHEKEQVIPIALLSLLFRCSITEAQAHLAAAPSVCEAVRSALAGPGQKRTADPLEILEPDVQ

Experiments:
Type in all cases: biochemical
GST-GK(p.Ala449Thr) [1] = target: T1, GST-GK(p.Ala449Thr) (Homo sapiens, UniProt P35557, A449T); experiment: Inhibition of glucokinase activity by palmitoyl-CoA, Dixon plots
T1 construct: made in house; host or cells: E. coli
T1 sequence (P35557 1-465 A449T): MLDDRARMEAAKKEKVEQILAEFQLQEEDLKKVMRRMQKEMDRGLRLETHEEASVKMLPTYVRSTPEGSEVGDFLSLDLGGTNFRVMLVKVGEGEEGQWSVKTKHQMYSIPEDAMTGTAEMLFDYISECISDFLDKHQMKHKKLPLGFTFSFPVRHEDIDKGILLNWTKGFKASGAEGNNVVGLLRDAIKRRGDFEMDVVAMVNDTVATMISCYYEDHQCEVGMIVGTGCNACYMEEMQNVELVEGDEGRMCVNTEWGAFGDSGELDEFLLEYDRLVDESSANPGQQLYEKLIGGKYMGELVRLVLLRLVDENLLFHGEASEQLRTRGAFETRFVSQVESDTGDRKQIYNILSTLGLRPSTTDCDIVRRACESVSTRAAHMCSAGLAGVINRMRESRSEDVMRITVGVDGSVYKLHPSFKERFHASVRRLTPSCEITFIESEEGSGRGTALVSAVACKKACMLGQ
Experimental: (§1) Glucokinase activity was measured spectrophotometrically on a spectrophotometer Uviconxl (Secoman), using an NADP^+-coupled assay with glucose-6-phosphate dehydrogenase, as described previously. The final reaction mixture contained 100 mM Tris pH 7.4, 150 mM KCl, 1 mM MgCl2, 1.4 mM ß-mercaptoethanol, 0.1% BSA, 5 mM ATP-MgCl2, 1 mM NADP^+, and 1 U/ml glucose-6-phosphate dehydrogenase. Determination of kinetic parameters and thermal stability tests were performed as in [20]. […] Inhibition by NAG and MH was determined under standard assay conditions with 50 nM glucokinase. The inhibition by palmitoylCoA was determined in reaction mixtures containing 25 mM Hepes pH 7.1; 25 mM KCl; 1 mM NADP, 1 mM ATP-MgCl2; 2.5 mM MgCl2; 5 mM ß-mercaptoethanol, 1 U/ml glucose-6-phosphate dehydrogenase and 61 nM glucokinase. Due to the low Kcat value of mutant GST-GK(pAla449Thr), the amount of protein used in inhibition assays was 180 nM to get sufficient activity to allow for accurate determination of the inhibitor effect. In these conditions, GK activity (U/mg of GST-GK(pAla449Thr)) in the absence of inhibitors was 1.3±0.08, 1.1±0.06 and 0.9±0.05 at 2, 1.5 and 1 mM of glucose, respectively for NAG and MH assays and 0.5±0.05, 0.33±0.03 and 0.27±0.03 at 2, 1.5 and 1 mM glucose, respectively for palmitoyl-CoA assay.

GST-GK(p.Gly223Ser) = target: T2, GST-GK(p.Gly223Ser) (Homo sapiens, UniProt P35557, G223S); experiment: as above; settings: glucose 12.5, 25 and 50 mM; read-out: I50 for palmitoyl-CoA
T2 construct: made in house; host or cells: E. coli
T2 sequence (P35557 1-465 G223S): T1 sequence (P35557 1-465 A449T) with G223S, T449A
Experimental: as §1

Wild-type GST-GK = target: T3, Wild-type GST-GK (Homo sapiens, UniProt P35557); experiment: as above; settings: glucose 2, 5 and 8 mM; 61 nM glucokinase; read-out: I50 for palmitoyl-CoA
T3 construct: made in house; host or cells: E. coli
T3 sequence (P35557 1-465): T1 sequence (P35557 1-465 A449T) with T449A
Experimental: as §1

GST-GK(p.Ala449Thr) [2] = target: T1, GST-GK(p.Ala449Thr); experiment: Inhibition of glucokinase activity by human GKRP; settings: 5 mM glucose; GKRP 0 to 200 nM; 10 µM S6P or 0.2 mM F1P
Experimental: Purified human GKRP was kindly provided by KJ Brocklehurst (Cardiovascular and Gastrointestinal Department, AstraZeneca, Macclesfield, Cheshire SK10 4TG, UK). The effect of GKRP on glucokinase activity was determined as described. The final reaction mixture contained 25 mM Hepes pH 7.1; 25 mM KCl; 1 mM NADP, 1 mM ATP-MgCl2; 2.5 mM MgCl2; 5 mM ß-mercaptoethanol, 1 U/ml glucose-6-phosphate dehydrogenase, 61 nM of GST-GK or 180 nM GST-GK(pAla449Thr), 5 mM glucose, GKRP (0 to 200 nM) and, when indicated, 10 µM sorbitol-6-phosphate (S6P) or 0.2 mM fructose-1-phosphate (F1P). In these conditions, GST-GK(pAla449Thr) activity in the absence of GKRP was 0.8±0.09 U/mg of protein.
Figure 2 Effect of mutation p.Ala449Thr on the GK interaction with GKRP. A) Inhibition of glucokinase activity by human GKRP. Enzyme activity was measured at 5 mM glucose as described in Material and Methods, in the presence of 10 µM S6P (left panel) or 0.2 mM F1P (right panel). Results are means ± SEM for three independent enzyme purifications assayed in triplicate. B) Two-hybrid interaction of GBD-GKRP with GAD-GK or GAD-GK(p.Ala449Thr) mutant. Yeast strain Y187 was used, and fusion proteins were expressed from pGBKT7 and pACTII derivatives. Values are means ± SEM from ß-galactosidase activity of six independent transformants.

| Molecule | decrease of I50 for palmitoyl-CoA vs wild type (GST-GK(p.Ala449Thr) [1]) [%] | IC50 (GST-GK(p.Ala449Thr) [1]; glucose 1, 1.5 and 2 mM, 180 nM protein, read-out: I50 for palmitoyl-CoA) [µM] | IC50 (GST-GK(p.Gly223Ser)) [µM] | IC50 (Wild-type GST-GK) [µM] | enzymatic inhibition by GKRP, mutant vs wild type (GST-GK(p.Ala449Thr) [2]) |
| --- | --- | --- | --- | --- | --- |
| CCCCCCCCCCCCCCCC(=O)SCCNC(=O)CCNC(=O)[C@H](O)C(C)(C)COP(=O)(O)OP(=O)(O)OC[C@H]1O[C@@H](n2cnc3c(N)ncnc32)[C@H](O)[C@@H]1OP(=O)(O)O [palmitoyl-CoA] | ~26 | 2.24 ± 0.14 | 1.42 ± 0.13 | 3.06 ± 0.27 |  |
| B1 |  |  |  |  | the same |
